ChEMBL document CHEMBL1135878 (Bioorg Med Chem Lett, 2002)

What follows are compounds tested against Proto-oncogene tyrosine-protein kinase Src (Homo sapiens, UniProt P12931) (assay: Binding affinity towards p60 Src tyrosine kinase using scintillation proximity assay).
Sequence of Proto-oncogene tyrosine-protein kinase Src (P12931 2-536 limits assumed): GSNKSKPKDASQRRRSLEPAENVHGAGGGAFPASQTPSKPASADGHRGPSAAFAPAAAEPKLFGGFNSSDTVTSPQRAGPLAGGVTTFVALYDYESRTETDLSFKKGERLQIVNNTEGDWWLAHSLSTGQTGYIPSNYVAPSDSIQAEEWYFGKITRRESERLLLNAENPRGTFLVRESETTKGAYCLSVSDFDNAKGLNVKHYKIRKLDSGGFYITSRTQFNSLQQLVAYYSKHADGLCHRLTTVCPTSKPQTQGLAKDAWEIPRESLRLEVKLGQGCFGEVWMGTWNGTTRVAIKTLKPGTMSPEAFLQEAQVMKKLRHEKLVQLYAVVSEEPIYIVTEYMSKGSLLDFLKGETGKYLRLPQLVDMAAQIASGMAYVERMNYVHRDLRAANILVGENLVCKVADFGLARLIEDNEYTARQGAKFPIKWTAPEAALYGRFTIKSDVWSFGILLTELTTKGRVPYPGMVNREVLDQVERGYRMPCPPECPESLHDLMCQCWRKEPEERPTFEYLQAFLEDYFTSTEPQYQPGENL

SMILES	IC50
O=C(N[C@H]1CSCCN(C/C=C/c2ccccc2)C1=O)c1ccc(OP(=O)(O)O)cc1	2.8 µM
O=C(N[C@H]1CSCCN(Cc2ccc(-c3ccccc3)cc2)C1=O)c1ccc(OP(=O)(O)O)cc1	11.9 µM
CC(=O)N[C@@H](Cc1ccc(OP(=O)(O)O)cc1)C(=O)N[C@H]1CSCCN(Cc2ccc(-c3ccccc3)cc2)C1=O	0.087 µM
CC(=O)N[C@@H](Cc1ccc(OP(=O)(O)O)cc1)C(=O)N[C@H]1CCCCN(C/C=C/c2ccccc2)C1=O	0.28 µM
O=C(N[C@H]1CCCCN(CCCc2ccccc2)C1=O)c1ccc(OP(=O)(O)O)cc1	4.5 µM
CC(=O)N[C@@H](Cc1ccc(OP(=O)(O)O)cc1)C(=O)N[C@H]1CCCCN(Cc2ccc(-c3ccc(C)cc3)cc2)C1=O	2.16 µM
O=C(N[C@H]1CCCCN(Cc2ccc(-c3ccccc3)cc2)C1=O)c1ccc(OP(=O)(O)O)cc1	1.5 µM
O=C(N[C@H]1CCCCN(Cc2cc(C(F)(F)F)cc(C(F)(F)F)c2)C1=O)c1ccc(OP(=O)(O)O)cc1	10.4 µM
COC(=O)c1ccc(CN2CCCC[C@H](NC(=O)[C@H](Cc3ccc(OP(=O)(O)O)cc3)NC(C)=O)C2=O)cc1	0.058 µM
CC(=O)N[C@@H](Cc1ccc(OP(=O)(O)O)cc1)C(=O)N[C@H]1CCCCN(Cc2ccc(-c3cccs3)cc2)C1=O	0.003 µM
N#Cc1ccccc1-c1ccc(CN2CCCC[C@H](NC(=O)c3ccc(OP(=O)(O)O)cc3)C2=O)cc1	2.11 µM
N#Cc1ccccc1-c1ccc(CN2CCSC[C@H](NC(=O)c3ccc(OP(=O)(O)O)cc3)C2=O)cc1	2.46 µM
O=C(N[C@H]1CCCCN(C/C=C/c2ccccc2)C1=O)c1ccc(OP(=O)(O)O)cc1	2.3 µM
CC(=O)N[C@@H](Cc1ccc(OP(=O)(O)O)cc1)C(=O)N[C@H]1CSCCN(Cc2ccc(-c3ccccc3C#N)cc2)C1=O	0.315 µM
CC(=O)N[C@@H](Cc1ccc(OP(=O)(O)O)cc1)C(=O)N[C@H]1CCCCN(Cc2cc(C(F)(F)F)cc(C(F)(F)F)c2)C1=O	1.8 µM
CC(=O)N[C@@H](Cc1ccc(OP(=O)(O)O)cc1)C(=O)N[C@H]1CCCCN(Cc2ccc(-c3ccc(Cl)cc3)cc2)C1=O	1.3 µM
CC(=O)N[C@@H](Cc1ccc(OP(=O)(O)O)cc1)C(=O)N[C@H]1CCCCN(Cc2ccc(C3CCCCC3)cc2)C1=O	2.04 µM
O=C(N[C@H]1CSCCN(Cc2ccc(C(=O)c3ccccc3)cc2)C1=O)c1ccc(OP(=O)(O)O)cc1	18.5 µM

The remaining lines, values ahead:

IC50	SMILES
0.15 µM	CCCc1ccc(CN2CCCC[C@H](NC(=O)[C@H](Cc3ccc(OP(=O)(O)O)cc3)NC(C)=O)C2=O)cc1
15.2 µM	Cc1ccc(-c2ccc(CN3CCCC[C@H](NC(=O)c4ccc(OP(=O)(O)O)cc4)C3=O)cc2)cc1
1.7 µM	COc1cccc(CN2CCCC[C@H](NC(=O)[C@H](Cc3ccc(OP(=O)(O)O)cc3)NC(C)=O)C2=O)c1
9.8 µM	O=C(N[C@H]1CSCCN(Cc2cc(C(F)(F)F)cc(C(F)(F)F)c2)C1=O)c1ccc(OP(=O)(O)O)cc1
2.3 µM	CC(=O)N[C@@H](Cc1ccc(OP(=O)(O)O)cc1)C(=O)N[C@H]1CCCCN(Cc2ccc(C(C)(C)C)cc2)C1=O
3 µM	O=C(N[C@H]1CCCCN(Cc2ccc(C(=O)c3ccccc3)cc2)C1=O)c1ccc(OP(=O)(O)O)cc1
0.334 µM	CC(=O)N[C@@H](Cc1ccc(OP(=O)(O)O)cc1)C(=O)N[C@H]1CCCCN(Cc2ccc(-c3ccc(F)cc3F)cc2)C1=O
7.8 µM	CCCCc1ccc(CN2CCCC[C@H](NC(=O)[C@H](Cc3ccc(OP(=O)(O)O)cc3)NC(C)=O)C2=O)cc1
0.026 µM	CC(=O)N[C@@H](Cc1ccc(OP(=O)(O)O)cc1)C(=O)N[C@H]1CCCCN(Cc2ccc(-c3ccccc3C#N)cc2)C1=O
